The nature of data set [1]: Localization of H105A in retina by anti-H105A immunofluorescence. The data set is classed as in vivo. The note with it: RhoP23H/+ mice, daily eye drops P14-P19, anti-H105A immunofluorescence. The method, then:
To detect the transduced H105A peptide, we used a custom-made monoclonal recombinant Fab antibody raised against H105A (Bio-Rad AbD Serotec GmbH, Puchheim, Germany). The custom-made antibodies were produced by HuCAL® technology with a FLAG-tag for detection. […] Cells were maintained in DMEM 4.5 g/l (Thermo Fisher Scientific, cat. 11960), supplemented with 10% fetal bovine serum (FBS), 100 U/ml penicillin and 100 µg/ml streptomycin (Thermo Fisher Scientific, cat. 15140148) in 5% CO2 and at 37 °C. […] The specificity of the custom antibody to the H105A peptide was assessed by pre-incubation with 400 µM H105A peptide at 25 °C for 1 h before using it for immunodetection. […]
Daily eye-drop-delivered H105A between P14 and P19 penetrated the retina, reached the photoreceptors, and w a s detected throughout the retina, mostly in the IS/OS ( c). […]
(g-i) Negative controls for immunostaining. No staining was detected in untreated Rho P23H/+ retinas at P 19 (g), in sections where the antibody was pre-incubated with 400 µM H105A peptide for one hour (Panel h), or in sections without the primary antibody (i). […]

In data set [2] the test system is rod photoreceptor outer segments of RhoP23H/+ mice. The experiment in a line: OS thickness labelled by rhodopsin, RhoP23H/+ mice. The note with it: Fig 6e. It is filed as in vivo, mouse. The method, then:
Eyes from Rho^P23H/+ mice eyes were enucleated and fixed in Davidson’s fix (8% formaldehyde (Merck, cat. F8775), 32% ethanol (Carlo Erba, cat. 414608), 10% acetic acid (Merck, cat. 695092)) over-night. After embedding in paraffin, 14 μm sections were collected. For TUNEL, sections were treated with […] Citrate Buffer pH 6 (10 mM Tri-sodium citrate (Carlo Erba, cat. 368007)), 0.2 mM citric acid (Merck, cat: 251275) in microwave for 5 min, then labeling was performed for one h at 37 °C using the In Situ Cell Death Detection Kit (Merck, cat. 12156792910). Rod photoreceptors were labeled with anti-RHO 1D4 antibody followed by Alexa Fluor 568 anti-mouse secondary antibody. Cone photoreceptors were labeled with anti-Opsin Blue (Merck, cat. AB5407) and anti-Opsin Red/Green (Merck, cat. AB5405). GFP localization in control transduced retinas was identified with specific anti-GFP antibody and Alexa Fluor 488 anti-mouse secondary antibody. Microglial cell labeling was performed using anti-Iba1 antibody (Wako, cat. 019-19741). For nuclear staining, 0.1 μg/ml DAPI was used. Slides were mounted with Mowiol 4–88 (Merck) and images acquired with a Zeiss Axio Imager A2 fluorescence microscope. To count TUNEL positive cells the RETINA Analysis Tool kit for ImageJ was used[37].
Fig. 6 Effects of eye drops containing H105A peptide in the photoreceptors of Rho^P23H/+ mice. a Scheme of experimental design. Daily peptide eye drops (5 µl of 1 mg/ml peptide) were applied to mice starting at P14 until P19 when immunofluorescence of retinal cross sections was performed. The contralateral control eyes were treated with vehicle HBSS. RE and LE refer to the right and left eyes, respectively. b Immunostaining was performed with antibodies against BAX or BCL2 (green), and DAPI (blue). Histograms show quantification of immunofluorescence intensity for BAX and BCL2 markers. […] Each individual data point represents the average of five (n = 5) retinas ± SD, with statistical significance determined between H105A and vehicle by paired t-test (****p < 0.0001). […] Statistical significance between H105A and untreated is indicated by ∗p ≤ 0.05, and ∗∗p ≤ 0.01. […] Presented as average ± SD, with statistics performed using One-way ANOVA Šídák’s multiple comparisons test. ∗p ≤ 0.05

Where a SMILES comes first, the peptide text is derived from it.

Consider `CC[C@H](C)[C@H](NC(=O)[C@H](CC(C)C)NC(=O)[C@H](CC(=O)O)NC(=O)[C@H](Cc1ccc(O)cc1)NC(=O)[C@H](Cc1ccc(O)cc1)NC(=O)[C@H](CC(C)C)NC(=O)[C@H](C)NC(=O)[C@H](CCCNC(=N)N)NC(=O)[C@H](C)NC(=O)[C@@H](NC(=O)[C@@H](NC(=O)[C@H](CO)NC(=O)[C@H](CCC(=O)O)NC(=O)[C@@H](NC(=O)[C@H](CCCNC(=N)N)NC(=O)[C@@H](N)CCC(N)=O)[C@@H](C)O)[C@@H](C)CC)[C@@H](C)CC)C(=O)N[C@@H](CO)C(=O)O` [H105A] (H-QRTESIIARALYYDLIS-OH), for which the “localization of H105A in retina” value in data set [1] is on record as “reaching the photoreceptors”. The Outer segments (OS) thickness in data set [2] (replicate 1 of 9) turned out to be 14.6 µm; in data set [2] (replicate 2 of 9) it was 11.1 µm; in data set [2] (replicate 3 of 9), 16.1 µm; in data set [2] (replicate 4 of 9) it was 15.5 µm; in data set [2] (replicate 5 of 9), 14.5 µm; in data set [2] (replicate 6 of 9), 14.6 µm. The Outer segments (OS) thickness in data set [2] (replicate 7 of 9) amounted to 12.4 µm; in data set [2] (replicate 8 of 9) it was 20.7 µm; in data set [2] (replicate 9 of 9) it was 16.5 µm.

The record behind these values is paper PMC11928584, “H105A peptide eye drops promote photoreceptor survival in murine and human models of retinal degeneration” (Communications Medicine, 2025).
